Experimental data from PMC11062899, “De novo development of small cyclic peptides that are orally bioavailable” (Nature Chemical Biology, 2023).
Several values for one entry are separate records, joined by “and”; a condition that tells them apart may be missing. Identical values can stand only once. Like-named read-outs stand apart in the source and are kept apart here.

Experiments:
[1] = biological target: T1, porcine pepsin (Sus scrofa, UniProt P00791); test: Peptide stability in simulated gastric fluid (SGF); assay type: in vitro ADME
T1 construct: 0.32 g of porcine pepsin (Sigma-Aldrich, P7125) was dissolved under gentle agitation; purchased Sigma-Aldrich P7125
Outline: (§1)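 Peptide from a 1 mM DMSO stock was added to fluid pre-warmed at 37 °C. SGF was pH 1.2 NaCl with porcine pepsin (0.32 g per 100 ml), and SIF was pH 6.8 potassium phosphate with porcine pancreatin (1 g per 100 ml). Supernatant peptide was quantified by LC–MS, with residual expressed as T1/T0.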

[2] = Peptide stability in simulated intestinal fluid (SIF); assay type: in vitro ADME, porcine; settings: simulated gi fluid; 8 h, 37 °C, pH 6.8; read-out: Proteolytic stability: SIF (8 h) % remaining
Outline: as §1

[3] = system: porcine pancreatin; test: as above; assay type: in vitro ADME; settings: after 8 h vs 0 h (TIC)
Outline: as §1

[4] = biological target: T2, rat α-thrombin (Rattus norvegicus, UniProt P18292); test: Protease inhibition, Ki for rat α-thrombin (fluorogenic substrate Z-Gly-Gly-Arg-AMC); assay type: biochemical; settings: rat alpha thrombin; for Slope normalized to DMSO (proteolytic substrate cleavage over time): replicates R1-R3
T2 construct: rat α-thrombin (Molecular Innovations) were used at final concentrations of 2 nM and 3 nM; purchased Molecular Innovations
Outline: (§2)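 Ki derived through Cheng–Prusoff from IC50s (four-parameter logistic fit) against activity of peptide-free controls. Product fluorescence was read every 3 min over 30 min at 25 °C, substrate Z-Gly-Gly-Arg-AMC at 50 μM. Enzyme was 2 nM human or 3 nM rat α-thrombin, pH 7.4 buffer.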

[5] = Passive artificial membrane permeability (PAMPA)
[6] = biological target: human α-thrombin (Homo sapiens, UniProt P00734); test: Protease inhibition, Ki for human α-thrombin (fluorogenic substrate Z-Gly-Gly-Arg-AMC); assay type: biochemical; settings: human alpha thrombin; for Slope normalized to DMSO (proteolytic substrate cleavage over time): replicates R1-R3
Outline: as §2

T1 sequence (P00791 60-385): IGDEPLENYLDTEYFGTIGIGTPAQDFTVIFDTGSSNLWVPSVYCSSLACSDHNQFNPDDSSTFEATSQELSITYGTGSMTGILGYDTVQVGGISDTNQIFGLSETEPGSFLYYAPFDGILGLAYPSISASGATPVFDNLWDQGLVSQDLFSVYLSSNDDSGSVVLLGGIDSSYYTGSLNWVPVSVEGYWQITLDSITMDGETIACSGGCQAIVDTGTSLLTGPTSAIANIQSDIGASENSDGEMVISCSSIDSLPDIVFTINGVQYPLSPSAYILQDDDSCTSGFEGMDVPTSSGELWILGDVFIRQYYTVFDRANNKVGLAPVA

In the case of O=C1C[C@H]2CCCN2C(=O)[C@H](Cc2ccccc2)NC(=O)[C@@H](NC(=O)c2ccc(Cl)s2)CSCc2cccc(n2)CSCCN1 [compound 31], the “SGF stability, Residual peptide Average” value ([1]; after 8 h vs 0 h (TIC), average of R1-R3) is reported as 92.45, the “SGF stability, Residual peptide” value ([1]; after 8 h vs 0 h (TIC), single replicates R1-R3) is reported as 99.51 and 90.02 and 87.82 and the remaining at 8 h ([1]; simulated gi fluid, 8 h, 37 °C, pH 1.2, read-out: Proteolytic stability: SGF (8 h) % remaining) is reported as 92 ± 6%. The remaining at 8 h [2] was 76 ± 8%, the “SIF stability, Residual peptide Average” value ([3]; average of R1-R3) was 75.90 and the “SIF stability, Residual peptide” value ([3]; single replicates R1-R3) was 75.23 and 67.97 and 84.49. The Ki ([4]; average of R1-R3, read-out: Ki Average, rat alpha thrombin inhibition) was 183 nM, the “Slope normalized to DMSO (proteolytic substrate cleavage over time)” value ([4]; peptide 1.02E-03 uM) was 99.2 and 100.9 and 93.8 and the “Slope normalized to DMSO (proteolytic substrate cleavage over time)” value ([4]; peptide 1.04E+00 uM) was 29.7 and 30.1 and 28.1. For the same compound, the “Slope normalized to DMSO (proteolytic substrate cleavage over time)” value ([4]; peptide 1.27E-04 uM) was 101.2 and 100.0 and 97.1, the “Slope normalized to DMSO (proteolytic substrate cleavage over time)” value ([4]; peptide 1.30E-01 uM) was 74.9 and 71.7 and 69.9 and the “Slope normalized to DMSO (proteolytic substrate cleavage over time)” value ([4]; peptide 1.59E-05 uM) was 103.1 and 102.5 and 98.1. The “Slope normalized to DMSO (proteolytic substrate cleavage over time)” value ([4]; peptide 1.63E-02 uM) was 92.3 and 92.5 and 97.9, the “Slope normalized to DMSO (proteolytic substrate cleavage over time)” value ([4]; peptide 1.67E+01 uM) was 5.4 and 8.1 and 5.8 and the “Slope normalized to DMSO (proteolytic substrate cleavage over time)” value ([4]; peptide 2.03E-03 uM) was 98.5 and 94.4 and 93.1. For the same compound, the “Slope normalized to DMSO (proteolytic substrate cleavage over time)” value ([4]; peptide 2.08E+00 uM) was 20.1 and 19.4 and 16.8, the “Slope normalized to DMSO (proteolytic substrate cleavage over time)” value ([4]; peptide 2.54E-04 uM) was 119.5 and 99.6 and 95.9 and the “Slope normalized to DMSO (proteolytic substrate cleavage over time)” value ([4]; peptide 2.60E-01 uM) was 60.8 and 61.1 and 58.9. For the same compound, the “Slope normalized to DMSO (proteolytic substrate cleavage over time)” value ([4]; peptide 3.18E-05 uM) was 100.8 (2×) and 96.5, the “Slope normalized to DMSO (proteolytic substrate cleavage over time)” value ([4]; peptide 3.26E-02 uM) was 86.1 and 87.0 and 83.0 and the “Slope normalized to DMSO (proteolytic substrate cleavage over time)” value ([4]; peptide 3.33E+01 uM) was 5.3 (2×) and 6.5. For the same compound, the “Slope normalized to DMSO (proteolytic substrate cleavage over time)” value ([4]; peptide 4.07E-03 uM) was 93.9 and 97.5 and 93.1, the “Slope normalized to DMSO (proteolytic substrate cleavage over time)” value ([4]; peptide 4.17E+00 uM) was 12.5 and 13.2 and 11.9 and the “Slope normalized to DMSO (proteolytic substrate cleavage over time)” value ([4]; peptide 5.09E-04 uM) was 99.8 and 101.3 and 106.4. The “Slope normalized to DMSO (proteolytic substrate cleavage over time)” value ([4]; peptide 5.21E-01 uM) was 39.6 and 40.5 and 38.3, the “Slope normalized to DMSO (proteolytic substrate cleavage over time)” value ([4]; peptide 6.36E-05 uM) was 100.0 and 99.8 and 96.8 and the “Slope normalized to DMSO (proteolytic substrate cleavage over time)” value ([4]; peptide 6.51E-02 uM) was 90.0 and 82.1 and 78.1. For the same compound, the “Slope normalized to DMSO (proteolytic substrate cleavage over time)” value ([4]; peptide 6.67E+01 uM) was 6.2 and 7.3 and 4.1, the “Slope normalized to DMSO (proteolytic substrate cleavage over time)” value ([4]; peptide 7.95E-06 uM) was 105.8 and 104.8 and 99.9 and the “Slope normalized to DMSO (proteolytic substrate cleavage over time)” value ([4]; peptide 8.14E-03 uM) was 96.3 and 93.4 and 96.8. The “Slope normalized to DMSO (proteolytic substrate cleavage over time)” value ([4]; peptide 8.33E+00 uM) was 9.2 and 9.9 and 7.4, the IC50 ([4]; single replicates R1-R3, read-out: IC50, rat alpha thrombin inhibition) was 339 nM and 326 nM (2×) and the Ki ([4]; single replicates R1-R3, read-out: Ki, rat alpha thrombin inhibition) was 188 nM (2×) and 181 nM (2×) and 180 nM (2×). For the same compound, the “PAMPA permeability: % permeability” value ([5]; 50 μM, 12–18 h, acceptor concentration relative to equilibrium) was 47 ± 3%, the Papp at 50 μM ([5]; PAMPA, pH 7.4) was 6.17 ×10⁻⁶ cm/s and the “Permeability% Average” value ([5]; top well sample vs theoretical equilibrium sample (TIC), average of R1-R3) was 46.6%. For the same compound, the Permeability% ([5]; top well sample vs theoretical equilibrium sample (TIC), single replicates R1-R3) was 44.27% and 50.38% and 45.09%, the Ki ([6]; average of R1-R3, read-out: Ki Average, human alpha thrombin inhibition) was 608 nM and the “Slope normalized to DMSO (proteolytic substrate cleavage over time)” value ([6]; peptide 1.02E-03 uM) was 102.8 and 91.6 and 92.3. The “Slope normalized to DMSO (proteolytic substrate cleavage over time)” value ([6]; peptide 1.04E+00 uM) was 41.6 and 46.5 and 44.1, the “Slope normalized to DMSO (proteolytic substrate cleavage over time)” value ([6]; peptide 1.27E-04 uM) was 104.6 and 98.9 and 94.9 and the “Slope normalized to DMSO (proteolytic substrate cleavage over time)” value ([6]; peptide 1.30E-01 uM) was 89.0 and 82.0 and 80.6. The “Slope normalized to DMSO (proteolytic substrate cleavage over time)” value ([6]; peptide 1.59E-05 uM) was 106.7 and 95.1 and 97.4, the “Slope normalized to DMSO (proteolytic substrate cleavage over time)” value ([6]; peptide 1.63E-02 uM) was 99.4 and 97.2 and 88.2 and the “Slope normalized to DMSO (proteolytic substrate cleavage over time)” value ([6]; peptide 2.03E-03 uM) was 103.4 and 94.4 and 88.8. For the same compound, the “Slope normalized to DMSO (proteolytic substrate cleavage over time)” value ([6]; peptide 2.08E+00 uM) was 29.1 and 35.9 and 29.9, the “Slope normalized to DMSO (proteolytic substrate cleavage over time)” value ([6]; peptide 2.54E-04 uM) was 103.3 and 99.1 and 91.3 and the “Slope normalized to DMSO (proteolytic substrate cleavage over time)” value ([6]; peptide 2.60E-01 uM) was 77.6 and 74.7 and 72.2. For the same compound, the “Slope normalized to DMSO (proteolytic substrate cleavage over time)” value ([6]; peptide 3.18E-05 uM) was 106.8 and 94.8 and 91.3, the “Slope normalized to DMSO (proteolytic substrate cleavage over time)” value ([6]; peptide 3.26E-02 uM) was 96.6 and 90.1 and 84.7 and the “Slope normalized to DMSO (proteolytic substrate cleavage over time)” value ([6]; peptide 4.07E-03 uM) was 86.5 and 95.5 and 89.4. The “Slope normalized to DMSO (proteolytic substrate cleavage over time)” value ([6]; peptide 4.17E+00 uM) was 17.9 and 25.7 and 18.3, the “Slope normalized to DMSO (proteolytic substrate cleavage over time)” value ([6]; peptide 5.21E-01 uM) was 60.8 and 59.2 and 52.4 and the “Slope normalized to DMSO (proteolytic substrate cleavage over time)” value ([6]; peptide 6.36E-05 uM) was 98.6 and 95.0 and 94.0. The “Slope normalized to DMSO (proteolytic substrate cleavage over time)” value ([6]; peptide 6.51E-02 uM) was 91.4 and 89.0 and 83.1, the IC50 ([6]; single replicates R1-R3, read-out: IC50, human alpha thrombin inhibition) was 700 nM and 850 nM and 816 nM and the Ki ([6]; single replicates R1-R3, read-out: Ki, human alpha thrombin inhibition) was 540 nM and 655 nM and 629 nM.
